Measured values taken from US6514968B1, “Aminoalkoxy carbazoles for the treatment of cns diseases” (Pharmacia & Upjohn Company, priority 1999, dated 2003).

What follows are compounds tested against T1, cloned human 5-HT6 receptor (Homo sapiens, UniProt P50406) (assay: 5-HT6 Receptor Binding Assay). Conditions: [3H]-lysergic acid diethylamide (LSD) radioligand, membranes of Hela cells containing the cloned human 5-HT6 receptor, SPA beads; estimated IC50 converted to Ki by Cheng-Prusoff.
T1 construct: host or cells: HeLa cells (G-418 selection), membrane preparation
T1 sequence (P50406 whole entry): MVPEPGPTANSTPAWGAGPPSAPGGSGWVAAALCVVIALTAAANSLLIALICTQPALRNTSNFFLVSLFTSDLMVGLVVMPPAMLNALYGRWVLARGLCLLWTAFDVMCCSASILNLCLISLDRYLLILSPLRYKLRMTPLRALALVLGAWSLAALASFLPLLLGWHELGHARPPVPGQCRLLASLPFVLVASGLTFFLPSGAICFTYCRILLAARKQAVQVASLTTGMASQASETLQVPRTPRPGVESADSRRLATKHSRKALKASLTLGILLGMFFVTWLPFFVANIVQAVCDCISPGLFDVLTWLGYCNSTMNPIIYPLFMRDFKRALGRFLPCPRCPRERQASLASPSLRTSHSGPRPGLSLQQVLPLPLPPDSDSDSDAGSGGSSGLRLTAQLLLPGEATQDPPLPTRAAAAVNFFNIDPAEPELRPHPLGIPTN
Experimental: 5-HT6 Receptor Binding Assay
Growth of Cells and Membrane Preparation
Hela cells containing the cloned human 5-HT6 receptor were acquired from Dr. David R. Sibley's laboratory in National Institute of Health (see Sibley, D. R., J. Neurochemistry, 66, 47-56, 1996). Cells were grown in high glucose Dulbecco's modified Eagle's medium, supplemented with L-glutamine, 0.5% sodium pyruvate, 0.3% penicillin-streptomycin, 0.025% G-418 and 5% Gibco fetal bovine serum and then were harvested, when confluent, in cold phosphate-buffered saline.
Harvested intact cells were washed once in cold phosphate-buffered saline. The cells were pelleted and resuspended in 100 ml of cold 50 mM Tris, 5 mM EDTA and 5 mM EGTA, pH 7.4. Homogenization was with a Vir Tishear generator, 4 cycles for 30 seconds each at setting 50. The homogenized cells were centrifuged at 700 RPM (1000×g) for 10 minutes and the supernatant was removed. The pellet was resuspended in 100 ml of the above buffer and rehomogenized for 2 cycles. The rehomogenized cells were then centrifuged at 700 RPM (1000×g) for 10 minutes and the supernatant was removed. The combined supernatant (200ml) was centrifuged at 23,000 RPM (80,000×g) for 1 hour in a Beckman Rotor (42.1 Ti). The membrane pellet was resupended in 50-8-ml of assay buffer containing HEPES 20 mM, MgCl2 10 mM, NaCl 150 mM, EDTA 1 mM, pH 7.4 and stored frozen in aliqouts at −70° C.
The radioligand binding assay used [^3H]-lysergic acid diethylamide (LSD). The assay was carried out in Wallac 96-well sample plates by the addition of 11 μl of the test sample at the appropriate dilution (the assay employed 11 serial concentrations of samples run in duplicate), 11 μl of radioligand, and 178 μl of a washed mixture of WGA-coated SPA beads and membranes in binding buffer. The plates were shaken for about 5 minutes and then incubated at room temperature for 1 hour. The plates were then loaded into counting cassettes and counted in a Wallac MicroBeta Trilux scintillation counter.
Binding Constant (Ki) Determination
Eleven serial dilutions of test compounds were distributed to assay plates using the PE/Cetus Pro/Pette pipetter. These dilutions were, followed by radioligand and the bead-membrane mixture prepared as described above. The specifically bound cpm obtained were fit to a one-site binding model using GraphPad Prism ver. 2.0. Estimated IC50 values were converted to Ki values using the Cheng-Prusoff equation (Cheng, Y. C. et al., Biochem. Pharmacol., 22, 3099-108, 1973).

Ki [nM] | Compound
62 | OCCN1CCN(CCOc2cccc3c2c2ccccc2n3Cc2ccccc2)CC1 [Example 9, 2-(4-{2-[(9-benzyl-9H-carbazol-4-yl)oxy]ethyl}-1-piperazinyl)-1-ethanol]
20 | Cc1cccc(Cn2c3ccccc3c3c(OCCN)cccc32)c1 [Example 59, 2-{[9-(3-Methylbenzyl)-9H-carbazol-4-yl]oxy}ethylamine]
123 | CCN(CC)CCOc1cccc2c1c1cc(C)ccc1n2Cc1ccc(F)cc1 [Example 48, N,N-Diethyl-N-(2-{[9-(4-fluorobenzyl)-6-methyl-9H-carbazol-4-yl]oxy}ethyl)amine]
47 | c1ccc(Cn2c3ccccc3c3c(OCCNC4CCC4)cccc32)cc1 [Example 26, N-{2-[(9-benzyl-9H-carbazol-4-yl)oxy]ethyl}cyclobutanamine]
12 | CN1CCN(CCOc2cccc3c2c2ccccc2n3Cc2ccccc2)CC1 [Example 30, 9-benzyl-4-[2-(4-methyl-1-piperazinyl)ethoxy]-9H-carbazole]
23 | C=CCNCCOc1cccc2c1c1ccccc1n2Cc1ccccc1 [Example 11, N-{2-[(9-benzyl-9H-carbazol-4-yl)oxy]ethyl}-2-propen-1-amine]
40 | CCOC(=O)CCNCCOc1cccc2c1c1ccccc1n2Cc1ccccc1 [Example 25, ethyl 3-({2-[(9-benzyl-9H-carbazol-4-yl)oxy]ethyl}amino)propanoate]
11 | OC1CCN(CCOc2cccc3c2c2ccccc2n3Cc2ccccc2)CC1 [Example 29, 1-{2-[(9-benzyl-9H-carbazol-4-yl)oxy]ethyl}-4-piperidinol]
72 | CCC(O)CNCCOc1cccc2c1c1ccccc1n2Cc1ccccc1 (stereo not shown) [Example 21, 1-({2-[(9-benzyl-9H-carbazol-4-yl)oxy]ethyl}amino)-2-butanol]
356 | Clc1ccc(CCNCCOc2cccc3c2c2ccccc2n3Cc2ccccc2)cc1 [Example 18, 2-[(9-benzyl-9H-carbazol-4-yl)oxy]-N-(4-chlorophenethyl)-1-ethanamine]
164 | CC(C)(CO)NCCOc1cccc2c1c1ccccc1n2Cc1ccccc1 [Example 17, 2-({2-[(9-benzyl-9H-carbazol-4-yl)oxy]ethyl}amino)-2-methyl-1-propanol]
40 | CCCNCCOc1cccc2c1c1ccccc1n2Cc1ccccc1 [Example 14, N-{2-[(9-benzyl-9H-carbazol-4-yl)oxy]ethyl}-1-propanamine]
60 | COc1ccc2c3c(OCCN)cccc3n(Cc3ccccc3)c2c1 [Example 62, 2-[(9-Benzyl-7-methoxy-9H-carbazol-4-yl)oxy]ethylamine]
127 | NCCOc1cccc2c1c1ccccc1n2Cc1cccc(Br)c1 [Example 53, 2-{[9-(3-Bromobenzyl)-9H-carbazol-4-yl]oxy}ethylamine]
101 | NCCOc1cccc2c1c1ccccc1n2Cc1cccc(F)c1 [Example 54, 2-{[9-(3-Fluorobenzyl)-9H-carbazol-4-yl]oxy}ethylamine]
113 | Cc1nc(Cn2c3ccccc3c3c(OCCN)cccc32)cs1 [Example 51, 2-({9-[(2-Methyl-1,3-thiazol-4-yl)methyl]-9H-carbazol-4-yl}oxy)ethylamine]
6.6 | CCN(CC)CCOc1cccc2c1c1cc(C)ccc1n2Cc1ccccc1 [Example 45, N-{2-[(9-Benzyl-6-methyl-9H-carbazol-4-yl)oxy]ethyl}-N,N-diethylamine]
138 | O=CNCCN1CCN(CCOc2cccc3c2c2ccccc2n3Cc2ccccc2)CC1 [Example 27, 2-(4-{2-[(9-benzyl-9H-carbazol-4-yl)oxy]ethyl}-1-piperazinyl)ethylformamide]
43 | OCCCCCNCCOc1cccc2c1c1ccccc1n2Cc1ccccc1 [Example 13, 5-({2-[(9-benzyl-9H-carbazol-4-yl)oxy]ethyl}amino)-1-pentanol]

Ki [nM] | Compound
138 | NCCOc1cccc2c1c1ccccc1n2Cc1csc2ccc(Cl)cc12 [Example 50, 2-({9-[(5-Chloro-1-benzothiophen-3-yl)methyl]-9H-carbazol-4-yl}oxy)ethylamine]
24 | NCCOc1c(Cl)ccc2c1c1ccccc1n2Cc1ccccc1 [Example 52, 2-[(9-Benzyl-3-chloro-9H-carbazol-4-yl)oxy]ethylamine]
11 | CCNCCOc1cccc2c1c1ccccc1n2Cc1ccccc1 [Example 37, 2-[(9-benzyl-9H-carbazol-4-yl)oxy]-N-ethyl-1-ethanamine]
38 | CCN(CC)CCOc1cccc2c1c1cccc(C)c1n2Cc1ccc(F)cc1 [Example 5, N,N-Diethyl-N-(2-{[9-(4-fluorobenzyl)-8-methyl-9H-carbazol-4-yl]oxy}ethyl)amine]
311 | c1ccc(Cn2c3ccccc3c3c(OCCNCC4CCCCC4)cccc32)cc1 [Example 19, 2-[(9-benzyl-9H-carbazol-4-yl)oxy]-N-(cyclohexylmethyl)-1-ethanamine]
21 | c1ccc(Cn2c3ccccc3c3c(OCCNC4CC4)cccc32)cc1 [Example 31, N-{2-[(9-benzyl-9H-carbazol-4-yl)oxy]ethyl}-N-cyclopropylamine]
27 | COc1ccc2c(c1)c1c(OCCN)cccc1n2Cc1ccccc1 [Example 61, 2-[(9-Benzyl-6-methoxy-9H-carbazol-4-yl)oxy]ethylamine]
398 | c1ccc(Cn2c3ccccc3c3c(OCCN4CCOCC4)cccc32)cc1 [Example 8, 9-benzyl-4-[2-(4-morpholinyl)ethoxy]-9H-carbazole]
119 | NCCOc1cccc2c1c1ccccc1n2Cc1ccccc1F [Example 56, 2-{[9-(2-Fluorobenzyl)-9H-carbazol-4-yl]oxy}ethylamine]
394 | CCCN(CCC)CCOc1cccc2c1c1ccccc1n2Cc1ccccc1 [Example 15, N-{2-[(9-benzyl-9H-carbazol-4-yl)oxy]ethyl}-N-propyl-1-propanamine]
81 | Fc1ccc(CCNCCOc2cccc3c2c2ccccc2n3Cc2ccccc2)cc1 [Example 22, 2-[(9-benzyl-9H-carbazol-4-yl)oxy]-N-(4-fluorophenethyl)-1-ethanamine]
85 | O[C@H]1CCCC[C@@H]1NCCOc1cccc2c1c1ccccc1n2Cc1ccccc1 [Example 24, (1S,2S)-2-({2-[(9-benzyl-9H-carbazol-4-yl)oxy]ethyl}amino)cyclohexanol]
184 | c1ccc(Cn2c3ccccc3c3c(OCCNCCCN4CCOCC4)cccc32)cc1 [Example 12]
72 | c1ccc(Cn2c3ccccc3c3c(OCCNCc4nc5ccccc5[nH]4)cccc32)cc1 [Example 28, N-(1H-benzimidazol-2-ylmethyl)-2-[(9-benzyl-9H-carbazol-4-yl)oxy]-1-ethanamine]
20 | OCCCNCCOc1cccc2c1c1ccccc1n2Cc1ccccc1 [Example 10, 3-({2-[(9-benzyl-9H-carbazol-4-yl)oxy]ethyl}amino)-1-propanol]
37 | c1ccc(Cn2c3ccccc3c3c(OCCNCCN4CCOCC4)cccc32)cc1 [Example 20, 2-[(9-benzyl-9H-carbazol-4-yl)oxy]-N-[2-(4-morpholinyl)ethyl]-1-ethanamine]
18 | CCN(CC)CCOc1cccc2c1c1cccc(C)c1n2Cc1ccccc1 [Example 4, N-{2-[(9-Benzyl-8-methyl-9H-carbazol-4-yl)oxy]ethyl}-N,N-diethylamine]
88 | c1ccc(Cn2c3ccccc3c3c(OCCN4CCNCC4)cccc32)cc1 [Example 40, 9-Benzyl-4-[2-(1-piperazinyl)ethoxy]-9H-carbazole]
